For two compounds, GI50 results are on record in patent publication US10669238B2, “Irreversible bruton's tyrosine kinase inhibitor” (HEFEI INSTITUTES OF PHYSICAL SCIENCE, CHINESE ACADEMY OF …, priority 2016, dated 2020).

Where only a bound is given, the exact number is not on record here.

Format in all cases: cell-based
In test [1] the test system is human leukocyte leukemia cells HEL. In words: Cell proliferation (Cell Titer-Glo), HEL. The conditions noted are these: 72 hours, read-out: Effects on cell proliferation (GI50). The method, then:
(§1) The selectivity of Compound 1 in inhibiting the proliferation of cancer cells was further evaluated by testing the effect of Btk inhibitors on the growth of cancer cells. […]
(§2) In this example different concentrations (0.000508 μM, 0.00152 μM, 0.00457 μM, 0.0137 μM, 0.0411 μM, 0.123 μM, 0.370 μM, 1.11 μM, 3.33 μM, 10 μM) of Compound 1 and Compound 6 were respectively added into the above cells which were then cultured for 72 hours. The number of viable cells was determined via quantitative determination of ATP in living cells by using Cell Titer-Glo® (Promega, the USA) Chemical Luminescent Cell Viability Assay kit.
A general note: In ATP-based viability assays light output follows the ATP content of the culture.

Test [2] concerns colon cancer cells HCT116. In words: Cell proliferation (Cell Titer-Glo), HCT116. The conditions noted are these: Homo sapiens, HCT-116; HCT116, 72 hours; read-out: Effects on cell proliferation (GI50). The method, then: as §1, §2
Test [3] has as its target T1, TEL-BMX-BaF3 cells (stably expressing TEL-BMX activated kinase) (Homo sapiens, UniProt P51813).
T1 construct: expressed in transfected cells; host or cells: mouse BaF3 cells, retroviral MSCV-Puro; the other entry of the earlier key: ETV6 (P41212, Transcription factor ETV6)
Nature of the test: Cell proliferation (Cell Titer-Glo), BaF3-tel-BMX. The settings on record: BaF3-tel-BMX (mouse BaF3 cells), 72 hours; read-out: Effects on cell proliferation (GI50). On the procedure: as §1, §2

Test [4] relates to multiple myeloma cell lines RPM18226. Nature of the test: Cell proliferation (Cell Titer-Glo), RPMI8226. The settings on record: Homo sapiens, RPMI-8226; RPMI8226, 72 hours; read-out: Effects on cell proliferation (GI50). The method, then:
as §1, §2

The target in test [5] is T2, TEL-BLK-BaF3 cells (stably expressing TEL-BLK activated kinase) (Homo sapiens, UniProt P51451).
T2 construct: expressed in transfected cells; host or cells: mouse BaF3 cells, retroviral MSCV-Puro; the other entry of the earlier key: ETV6 (P41212, Transcription factor ETV6)
T2 sequence (P51451 241-494 limits assumed): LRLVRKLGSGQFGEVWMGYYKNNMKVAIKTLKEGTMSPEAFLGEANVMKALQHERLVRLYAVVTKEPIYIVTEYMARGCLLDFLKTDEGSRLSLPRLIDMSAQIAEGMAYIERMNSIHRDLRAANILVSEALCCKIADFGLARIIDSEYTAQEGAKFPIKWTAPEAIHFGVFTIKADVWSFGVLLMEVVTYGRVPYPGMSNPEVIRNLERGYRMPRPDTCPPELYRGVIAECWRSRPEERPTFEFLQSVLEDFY
Nature of the test: Cell proliferation (Cell Titer-Glo), BaF3-tel-BLK. The conditions noted are these: BaF3-tel-BLK (mouse BaF3 cells), 72 hours; read-out: Effects on cell proliferation (GI50). The method, then: as §1, §2

Test [6] deals with acute myelocytic leukemia cell strains HL-60. In words: Cell proliferation (Cell Titer-Glo), HL60. The settings on record: Homo sapiens, HL60, 72 hours, read-out: Effects on cell proliferation (GI50). The method, then: as §1, §2
Test [7] deals with acute myeloid leukemia cell lines MOLM14. In words: Cell proliferation (Cell Titer-Glo), MOLM14. The settings on record: Homo sapiens, MOLM-14; MOLM14, 72 hours; read-out: Effects on cell proliferation (GI50). On the procedure:
as §1, §2

The target of test [8] is T3, TEL-EGFR/T790-BaF3 cells (stably expressing TEL-EGFR-C797S point mutation kinase) (Homo sapiens, UniProt P00533, C797S).
T3 construct: expressed in transfected cells; host or cells: mouse BaF3 cells, retroviral MSCV-Puro
T3 sequence (P00533 712-979 C797S limits assumed): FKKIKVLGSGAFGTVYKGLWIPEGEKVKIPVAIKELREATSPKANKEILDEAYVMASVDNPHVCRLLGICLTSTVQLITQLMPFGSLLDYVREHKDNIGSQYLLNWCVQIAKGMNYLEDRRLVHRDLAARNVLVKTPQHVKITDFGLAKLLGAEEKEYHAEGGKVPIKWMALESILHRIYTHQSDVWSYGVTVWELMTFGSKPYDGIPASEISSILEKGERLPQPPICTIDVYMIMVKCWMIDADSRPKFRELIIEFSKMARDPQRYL
In words: Cell proliferation (Cell Titer-Glo), BaF3-tel-EGFR-C797S. The settings on record: BaF3-tel-EGFR-C797S (mouse BaF3 cells), 72 hours; read-out: Effects on cell proliferation (GI50). On the procedure:
as §1, §2

For another test, the system named is mouse pro-B cells BaF3. Nature of the test: Cell proliferation (Cell Titer-Glo), WT-BaF3. The conditions noted are these: WT-BaF3, 72 hours, read-out: Effects on cell proliferation (GI50). On the procedure: as §1, §2
The target of test [9] is T4, TEL-LYN-BaF3 cells (stably expressing TEL-LYN activated kinase) (Homo sapiens, UniProt P07948).
T4 construct: expressed in transfected cells; host or cells: mouse BaF3 cells, retroviral MSCV-Puro; the other entry of the earlier key: ETV6 (P41212, Transcription factor ETV6)
T4 sequence (P07948 247-501 limits assumed): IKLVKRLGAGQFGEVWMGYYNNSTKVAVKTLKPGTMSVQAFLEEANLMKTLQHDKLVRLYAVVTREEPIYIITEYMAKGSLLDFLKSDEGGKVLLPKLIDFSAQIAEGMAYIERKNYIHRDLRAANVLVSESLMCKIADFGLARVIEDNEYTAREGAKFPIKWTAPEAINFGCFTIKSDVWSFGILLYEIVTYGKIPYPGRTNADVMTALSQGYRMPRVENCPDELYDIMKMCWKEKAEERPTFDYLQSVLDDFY
In words: Cell proliferation (Cell Titer-Glo), BaF3-tel-LYN. The settings on record: BaF3-tel-LYN (mouse BaF3 cells), 72 hours; read-out: Effects on cell proliferation (GI50). The method, then: as §1, §2

Test [10] has as its system MDS-RAEB cell lines SKM-1. In words: Cell proliferation (Cell Titer-Glo), SKM-1. The settings on record: Homo sapiens; SKM-1, 72 hours; read-out: Effects on cell proliferation (GI50). On the procedure:
as §1, §2

Test [11] relates to acute myeloid leukemia cell lines U937. In words: Cell proliferation (Cell Titer-Glo), U937. The settings on record: Homo sapiens, U-937; U937, 72 hours; read-out: Effects on cell proliferation (GI50). The method, then: as §1, §2
For test [12], the system named is B-cell lymphoma cells U2932. In words: Cell proliferation (Cell Titer-Glo), U2932. The conditions noted are these: Homo sapiens; U2932, 72 hours; read-out: Effects on cell proliferation (GI50). The method, then:
as §1, §2

Test [13] deals with bone marrow plasma cell tumor cells AMO-1. In words: Cell proliferation (Cell Titer-Glo), AMO-1. The settings on record: Homo sapiens, AMO1; AMO-1, 72 hours; read-out: Effects on cell proliferation (GI50). The method, then:
as §1, §2

In the next test the test system is leukemia cell OCI-AML-3. In words: Cell proliferation (Cell Titer-Glo), OCI-AML-3. The settings on record: Homo sapiens; OCI-AML-3, 72 hours; read-out: Effects on cell proliferation (GI50). The method, then: as §1, §2
Test [14] relates to acute myeloid leukemia cell lines M-07e. In words: Cell proliferation (Cell Titer-Glo), M-07e. The settings on record: 72 hours, read-out: Effects on cell proliferation (GI50). On the procedure:
as §1, §2

T1 sequence (P51813 417-675 limits assumed): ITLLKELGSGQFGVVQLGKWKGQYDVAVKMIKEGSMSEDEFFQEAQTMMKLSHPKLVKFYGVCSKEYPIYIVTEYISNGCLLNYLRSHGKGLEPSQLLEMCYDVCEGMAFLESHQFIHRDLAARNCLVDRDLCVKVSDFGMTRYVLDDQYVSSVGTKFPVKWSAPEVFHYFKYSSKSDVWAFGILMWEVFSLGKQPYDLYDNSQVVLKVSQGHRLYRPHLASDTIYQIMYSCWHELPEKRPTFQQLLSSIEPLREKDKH

In the case of `CCC(=O)Nc1cc(Nc2cc(-c3cccc(NC(=O)c4ccc(C(C)(C)C)cc4)c3C)cn(C)c2=O)ccc1C(=O)N1CCOCC1` [Compound 6, N-(3-(5-((3-propanamide-4-(morpholin-4-carbonyl)phenyl)amino)-1-methyl-6-oxo-1,6-dihydropyridin-3-yl)-2-methylphenyl)-4-(tert-butyl)benzamide], the GI50 in test [1] is over 10 µM; in test [2], over 10 µM; in test [3], 4.1 µM; in test [4] it was 4.7 µM; in [5] it was 5.4 µM; in [6] it was over 10 µM. For the same compound, the GI50 in test [7] was over 10 µM; in test [8], 1.8 µM; in the test on mouse pro-B cells BaF3, 6.3 µM; in [9], 6.8 µM; in test [10], over 10 µM; in test [11], over 10 µM. Further, the GI50 is over 10 µM in [12], 8 µM in [13], 9.5 µM with leukemia cell OCI-AML-3 and over 10 µM in test [14].
For the compound `C=CC(=O)Nc1cc(Nc2cc(-c3cccc(NC(=O)c4ccc(C(C)(C)C)cc4)c3C)cn(C)c2=O)ccc1C(=O)N1CCOCC1` [Compound 1, N-(3-(5-((3-acrylamide-4-(morpholin-4-carbonyl)phenyl)amino)-1-methyl-6-oxo-1,6-dihydropyridin-3-yl)-2-methylphenyl)-4-(tert-butyl)benzamide], the GI50 is 5.3 µM in test [1]; over 10 µM in [2]; 0.38 µM in [3]; 2.9 µM in [4]; 4.7 µM in test [5]; 5.5 µM in [6]. Further, the GI50 in test [7] stood at 6.4 µM; in test [8], 2.5 µM; in the test on mouse pro-B cells BaF3 it was 7.9 µM; in [9], 6.3 µM; in test [10], 7.1 µM; in [11] it was 4.8 µM. Moreover, the GI50 in test [12] is 2.4 µM; in test [13], 3.4 µM; in the test on leukemia cell OCI-AML-3, 3.8 µM; in test [14], 7.3 µM.
